According to patent publication US4481200A, “α2 -Adrenoceptor antagonistic benzoquinolizines” (John Wyeth & Brother, Limited, priority 1982, dated 1984):

Experiments:
α2-adrenoceptor = target: T1, α2-adrenoceptor (Rattus norvegicus, UniProt P22909); test: α2-adrenoceptor antagonistic activity on the rat field stimulated vas deferens preparation (clonidine as agonist); conditions: antagonism of clonidine, 37°, 90 min after introduction of antagonist, Arunlakshana & Schild, read-out: pA2 (α2) (converted)
T1 construct: from tissue; host or cells: rat vas deferens
T1 sequence (P22909 1-465): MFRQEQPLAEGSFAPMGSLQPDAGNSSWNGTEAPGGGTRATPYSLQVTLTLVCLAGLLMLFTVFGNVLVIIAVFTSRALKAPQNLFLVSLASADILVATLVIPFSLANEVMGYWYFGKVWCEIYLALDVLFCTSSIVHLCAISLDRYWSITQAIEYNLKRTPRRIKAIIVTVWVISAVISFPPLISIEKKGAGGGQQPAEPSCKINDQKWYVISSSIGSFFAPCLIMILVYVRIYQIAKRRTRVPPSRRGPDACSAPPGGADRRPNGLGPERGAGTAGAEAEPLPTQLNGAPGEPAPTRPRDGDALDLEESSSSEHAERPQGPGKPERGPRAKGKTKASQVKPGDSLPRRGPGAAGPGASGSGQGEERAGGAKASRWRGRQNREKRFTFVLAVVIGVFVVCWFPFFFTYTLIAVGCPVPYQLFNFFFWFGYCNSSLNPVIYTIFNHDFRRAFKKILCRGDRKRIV
Description: The compounds of the invention were tested for α2 -adrenoceptor antagonistic activity on the rat field stimulated vas deferens preparation using a modification of the method of Drew, Eur. J. Pharmac., 1977, 42, 123-130. The procedure is described below.
Desheathed vasa deferentia from sexually mature rats were suspended in a 6 ml organ bath in Krebs solution at 37° and bubbled with 5% CO2 in oxygen. Platinum ring electrodes were positioned above and below the tissue for field stimulation, The stimulus parameters being 0.1 Hz 1 ms pulse width at supramaximal voltage. Twitch responses were recorded isotonically with a 0.5 g loading. Clonidine hydrochloride was used as the α-adrenoceptor agonist and cumulative concentration-response curves were constructed for the inhibition of twitch obtained with clonidine in the range 0.125 to 4 ng ml^-1. After washing out clonidine, the twitch response quickly recovered and an antagonist was then introduced into the Krebs reservoir. Clonidine concentration-response curves were repeated 90 min after introduction of the antagonist. The concentration of clonidine producing 50% inhibition of twitch before and after introduction of antagonist were obtained and the dose-ratio for clonidine was calculated. Various concentrations of the antagonists were used.
Chemother., 1959, 14, 48-58 and the values of pA2 and slope were calculated.

α1-adrenoceptor [1] = target: T2, α1-adrenoceptor (Rattus norvegicus, UniProt P43140); test: α1 antagonistic activity on the isolated anococcygeus muscle of the rat (phenylephrine or methoxamine as agonist); conditions: antagonism of phenylephrine or methoxamine, rat anococcygeus muscle, 37°, 30 min equilibration, 10^-6 to 10^-4 M; Arunlakshana & Schild; read-out: pA2 (α1) (converted)
T2 construct: One method involves assessing the activity on the isolated anococcygeus muscle of the rat; from tissue; host or cells: rat anococcygeus muscle
T2 sequence (P43140 1-466): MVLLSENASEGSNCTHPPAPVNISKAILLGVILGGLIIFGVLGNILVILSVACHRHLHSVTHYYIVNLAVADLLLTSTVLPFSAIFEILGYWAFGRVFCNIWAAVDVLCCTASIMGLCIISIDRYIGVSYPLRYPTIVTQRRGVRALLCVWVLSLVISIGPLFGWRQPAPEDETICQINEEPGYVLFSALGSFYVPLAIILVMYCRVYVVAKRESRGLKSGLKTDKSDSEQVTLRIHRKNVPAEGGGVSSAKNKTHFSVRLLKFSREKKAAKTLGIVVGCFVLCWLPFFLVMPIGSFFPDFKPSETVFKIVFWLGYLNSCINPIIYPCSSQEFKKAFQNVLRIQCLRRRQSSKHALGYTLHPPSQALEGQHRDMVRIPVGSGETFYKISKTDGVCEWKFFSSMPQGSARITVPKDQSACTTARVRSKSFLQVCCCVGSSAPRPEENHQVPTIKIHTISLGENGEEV
Source text: (§1) The compounds of the invention antagonise the α2 -adrenoceptors to a much greater extent than the α1 -adrenoceptors. The α1 antagonistic activity can be evaluated by a number of different methods. One method involves assessing the activity on the isolated anococcygeus muscle of the rat. The method is based on that of Gillespie, Br.J.Pharmac., 1972, 45, 404-416. In the procedure male rats (250-360 g) are killed by a blow on the head and bled. The two anococcygeus muscles are removed from their position in the midline of the pelvic cavity, where they arise from the upper coccygeal vertebrae. The muscles are suspended in 5 ml organ baths in Krebs solution containing 10^-4 M ascorbic acid, to prevent drug oxidation. The tissues are gassed with a 95% oxygen, 5% CO2 mixture and maintained at 37°. Longitudinal muscle contractions are recorded using isotonic transducers. Cumulative dose response curves are then obtained to phenylephrine or in some cases methoxamine, both agents being […] alpha adrenoceptor agonists. The concentration range of phenylephrine or methoxamine used is 0.02 to 0.8 μg.ml^-1. The agonist is then washed from the bath and the test drug added to the bathing medium at a concentration of 10^-6 M. After 30 min equilibration with the test drug a further agonist dose response curve is obtained. The washing, equilibration and agonists dosing procedures are then repeated using 10^-5 M and 10^-4 M solutions of the test drug. Estimates of the pA2 value for the test drug as an antagonist of phenylephrine or methoxamine were made from the agonist dose-ratios using the method of Arunlakshana & Schild, Br.J.Pharmac. Chemother., 1959, 14, 48-58.

α1-adrenoceptor [2] = test: as above; conditions: antilog of (α2 pA2-α1 pA2)
Source text: as §1

Kb (α2-adrenoceptor) | Kb (α1-adrenoceptor [1]) | Structure (SMILES) | α2/α1 selectivity (α1-adrenoceptor [2])
37.2 nM | 363 nM | CC(C)NS(=O)(=O)N(C)[C@@H]1CCN2CCc3ccccc3[C@@H]2C1 (relative stereo) [Example 4, N-(i-Propyl)-N'-(1,3,4,6,7,11bα-hexahydro-2H-benzo[a]quinolizin-2β-yl)-N'-methylsulphamide] | 10
39.8 nM | 1120 nM | CN(C)S(=O)(=O)N(C)[C@@H]1CCN2CCc3ccccc3[C@@H]2C1 (relative stereo) [Example 2, N,N,N'-Trimethyl-N'-[1,3,4,6,7,11bα-hexahydro-2H-benzo[a]quinolizin-2β-yl]sulphamide] | 28
36.3 nM | 646 nM | CNS(=O)(=O)N(C)[C@@H]1CCN2CCc3ccccc3[C@@H]2C1 (relative stereo) [Example 1, N-Methyl-N-(1,3,4,6,7,11bα-hexahydro-2H-benzo[a]quinolizin-2β-yl)-N'-methylsulphamide] | 18
55 nM | 2510 nM | CN(C)CCS(=O)(=O)N(C)[C@@H]1CCN2CCc3ccccc3[C@@H]2C1 (relative stereo) [Example 3, N-Methyl-N-(1,3,4,6,7,11bα-hexahydro-2H-benzo[a]quinolizin-2β-yl)-2-dimethylaminoethanesulphonamide] | 46
